Experimental data from ChEMBL document CHEMBL1201862, “PubChem BioAssay data set” (2004).
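Dose response: 5 concentrations. Exposure: 48 h. Format: 96-well plates. Endpoint: linear interpolation; highest concentration if not reached. GI50: concentration for 50% inhibition of growth.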 The source made the active and inactive calls. Cut-off read from the data, not from the text of the source: active = GI50 up to about 1.1 µM and inactive = higher.

Columns and labels:
Test in all cases: NCI tumour cell line growth inhibition, 48 h
[1] = system: A498
[2] = system: HT-29
[3] = system: NCI-H522
[4] = system: K562
[5] = system: UO-31
[6] = system: SF-539
[7] = system: RXF 393
[8] = system: Malme-3M
[9] = system: OVCAR-4
[10] = system: NCI-H226
[11] = system: KM12
[12] = system: HCT-116
[13] = system: SF-268
[14] = system: HCT-15
[15] = system: SN12C
[16] = system: MDA-MB-231
[17] = system: BT-549
[18] = system: NCI-H460
[19] = system: HL-60
[20] = system: DU-145

Row | Structure (SMILES) | GI50 [1] | GI50 [2] | GI50 [3] | GI50 [4] | GI50 [5] | GI50 [6] | GI50 [7] | GI50 [8] | GI50 [9] | GI50 [10] | GI50 [11] | GI50 [12] | GI50 [13] | GI50 [14] [µM] | GI50 [15] | GI50 [16] | GI50 [17] | GI50 [18] | GI50 [19] | GI50 [20]
1 | C[C@H]1[C@H](C)N(Cc2ccccc2)P(=O)(C(O)/C=C/c2ccccc2)N1Cc1ccccc1 (stereo not given in full) | 5.45 µM (inactive) | 5.24 µM (inactive) | 5.83 µM (inactive) | 7.74 µM (inactive) | 5.27 µM (inactive) | 5.07 µM (inactive) | 6.24 µM (inactive) | 5.58 µM (inactive) | 5.04 µM (inactive) | 7.52 µM (inactive) | 8.91 µM (inactive) | 5.21 µM (inactive) | 6.84 µM (inactive) | 9.29 | 4.6 µM (inactive) | 6.12 µM (inactive) | 12 µM (inactive) | 3.72 µM (inactive) |  | 
2 | COc1ccc2c3c([nH]c(=O)c2c1C(=O)O)-c1ccccc1CC3 | > 100 µM (inactive) | > 100 µM (inactive) | > 100 µM (inactive) | > 100 µM (inactive) | > 100 µM (inactive) | > 100 µM (inactive) | > 100 µM (inactive) | > 100 µM (inactive) | > 100 µM (inactive) | 65.8 µM (inactive) | > 100 µM (inactive) | > 100 µM (inactive) | > 100 µM (inactive) | > 100 | > 100 µM (inactive) |  |  | > 100 µM (inactive) | > 100 µM (inactive) | 
3 | CC1=Nc2c(O)nc(S)nc2NC(c2ccc(Cl)c(Cl)c2)C1 (stereo not given) | 18.9 µM (inactive) | 24.3 µM (inactive) | 74.3 µM (inactive) | > 100 µM (inactive) | 29.9 µM (inactive) | 21.1 µM (inactive) | 17.5 µM (inactive) | > 89.7 µM (inactive) | 25.5 µM (inactive) | 22.6 µM (inactive) | 17.7 µM (inactive) | 15.8 µM (inactive) | 32.2 µM (inactive) | 33.7 | 20.1 µM (inactive) |  |  | 67.8 µM (inactive) | > 100 µM (inactive) | 
4 | CC(=O)OCC1OC(n2ncc(=O)[nH]c2=O)C(OC(C)=O)C1OC(C)=O (stereo not given) |  | 6.67 µM (inactive) | 19.1 µM (inactive) | 0.832 µM (active) |  | 30.3 µM (inactive) | > 100 µM (inactive) | > 100 µM (inactive) | > 100 µM (inactive) | 15.3 µM (inactive) | 11.3 µM (inactive) | 1.07 µM (active) | 5.33 µM (inactive) | 3.41 | 34.4 µM (inactive) | > 10 µM (inactive) |  | 1.17 µM (inactive) |  | 23 µM (inactive)
5 | OCC1C(OCc2ccccc2)C(OCc2ccccc2)C(OCc2ccccc2)CN1Cc1ccccc1 (stereo not given) |  | 9.62 µM (inactive) | 27.4 µM (inactive) | 16.3 µM (inactive) | 18.4 µM (inactive) | 73.5 µM (inactive) | 17.4 µM (inactive) | 27.9 µM (inactive) | 46.7 µM (inactive) | 33.8 µM (inactive) | 16.8 µM (inactive) | 17.3 µM (inactive) | 65.5 µM (inactive) | 30.5 | 14.5 µM (inactive) | 21.3 µM (inactive) |  | 14.5 µM (inactive) |  | > 100 µM (inactive)
6 | COc1ccc(C2(O)C(S(=O)(=O)c3ccc(C)cc3)=Cc3ccc(OC)cc32)cc1 (stereo not given) | 44.5 µM (inactive) | > 100 µM (inactive) | 39.9 µM (inactive) | > 100 µM (inactive) |  | 43.5 µM (inactive) |  |  |  | > 100 µM (inactive) | > 100 µM (inactive) | > 100 µM (inactive) | 31.6 µM (inactive) | > 100 | 73.8 µM (inactive) | > 100 µM (inactive) |  | > 100 µM (inactive) | 22 µM (inactive) | 71.3 µM (inactive)
7 | CCN(CC)c1ccc(/N=N/c2ccc(-c3nc4cccnc4o3)cc2)cc1 | > 100 µM (inactive) | > 100 µM (inactive) | 66.4 µM (inactive) | > 100 µM (inactive) | > 100 µM (inactive) | > 100 µM (inactive) | > 100 µM (inactive) | > 100 µM (inactive) | > 100 µM (inactive) | > 100 µM (inactive) | > 100 µM (inactive) | > 100 µM (inactive) | > 100 µM (inactive) | > 100 | > 100 µM (inactive) |  |  |  | > 100 µM (inactive) | 
8 | O=[N+]([O-])c1ccc2[nH]c(-c3ccc(Cl)cc3)nc2c1 |  | 18.5 µM (inactive) | 12.6 µM (inactive) |  | 23.9 µM (inactive) | 21.1 µM (inactive) |  | 28.4 µM (inactive) | 32.7 µM (inactive) | 22.3 µM (inactive) |  | 17.3 µM (inactive) | 19 µM (inactive) | 14.9 | 29.7 µM (inactive) | 15.5 µM (inactive) | 29.7 µM (inactive) | 19.5 µM (inactive) |  | 25.2 µM (inactive)
9 | COC(=O)C(/C(=N/N)C(=O)Nc1ccc(C)c(C)c1)c1nc2ccc(Cl)cc2nc1O (stereo not given) | > 100 µM (inactive) | > 100 µM (inactive) | > 100 µM (inactive) | > 100 µM (inactive) | 28.4 µM (inactive) | > 100 µM (inactive) | > 100 µM (inactive) | > 100 µM (inactive) | > 100 µM (inactive) | > 100 µM (inactive) | > 100 µM (inactive) | > 100 µM (inactive) | > 100 µM (inactive) | > 100 | > 100 µM (inactive) | > 100 µM (inactive) | > 100 µM (inactive) | > 100 µM (inactive) | > 100 µM (inactive) | 
